From patent publication US7605175B2, “Inhibitors of cyclin-dependent kinases, compositions and uses related thereto” (GPC Biotech AG, priority 2001, dated 2009)
pIC50: −log10 of the molar value. Like-named read-outs stand apart in the source and are kept apart here.

What was measured:
HCT-116 cells = assay: Calcein AM viability assay, HCT-116; type: cell-based; settings: Homo sapiens
Experimental: The potency of Cdk inhibitors, as measured by loss of cellular viability, was determined with the Calcein AM assay (Molecular Probes). Calcein AM is a substrate of intracellular esterases, which is cleaved only in viable cells to generate a fluorescent product that can be quantified with a fluorescent plate reader. The fluorescent signal is proportional to the number of viable cells, and thus loss of signal in response to the exposure of cells to Cdk inhibitors correlates with a loss of viability. This assay can distinguish cell cycle arrest, in which cells may still by viable, from loss of viability and is thus well suited for the evaluation of Cdk inhibitors. A compound that is a potent cytotoxic, may cause significant loss of cell viability in such assay.
Cellular IC50's were determined in the human colorectal carcinoma cell line, HCT-116, and the normal human fibroblast, IMR90. Protein adjusted IC50's were also determined in HCT-116.
HCT-116 or IMR90 cells were recovered from sub-confluent plates by trypsinization and 1,000 or 4,000 cells, respectively, were plated in 24-well dishes and incubated overnight at 37° C., 5% CO2. HCT-116 cells were cultured in RPMI-1640, 10% FCS, and IMR90 cells were cultured in Minimum Essential Medium-alpha, 10% FCS. After overnight incubation to allow adherence, the media was aspirated from each well and replaced with media containing a test compound at a concentration from 0 to 250 nM, spanning a total of 7 doses. The plates were returned to the incubator and cultured for an additional 72 hours (3 days). […] After 72-hours incubation with the test compound, the cells were washed twice with 1×PBS, taking special care to remove all residual buffer.
A 5 μM Calcein AM solution was prepared by dissolving a […] aliquot of Calcein (Molecular Probes catalog # C3100) in 50 μl DMSO. After the Calcein had completely dissolved (10 minutes at room temperature), it was diluted into 10 ml PBS. Calcein/PBS (0.5 ml) was added to each well. The plates were incubated for 75 minutes at 37° C. (protected from light) and the fluorescent signal was read on a fluorescent plate reader (excitation 485/20 and emission 530/25).

Cdk2/cyclin E = molecular target: T1, Cdk2/cyclin E (Homo sapiens, UniProt P24941); assay: Biochemical kinase assay Cdk2/cyclin E; settings: Table 6
T1 construct: made in house; host or cells: Sf9 insect cells
Description: (§1) Enzymes: Cdc2/cyclin B was obtained from commercial sources. Cdk2/his-cyclin Eshort was expressed in Sf9 cells. Cdk2/cyclin A, cdk4/cyclin D1, and cdk6/cyclin D2 were expressed in Sf9 cells. Protein kinase A (catalytic subunit, from bovine heart) and protein kinase C (mixed isozymes from rat brain) were obtained from commercial sources.
(§2) Substrates: Histone H1 was from commercial sources. GST-Rb is glutathione-S-trans-ferase fused to the N-terminal of residues 379-928 of the Rb protein.
(§3) Cdk2/cyclin E, Cdk2/cyclin A, Cdk4/cyclin D1, and Cdk6/cyclin D2 activity was determined using a glutathione-sepharose capture assay. The enzymes were expressed in Sf9 insect cells as heterodimers, and the substrate (GST-Rb) was glutathione-S-transferase fused to residues 379 to 928 of Rb retinoblastoma protein, expressed in E. coli. The assay solution contained 50 mM Tris.HCl, 10 mM MgCl2, 1 mM dithiothreitol, 50 μM adenosine triphosphate, 2 μCi [γ-^33P]adenosine triphosphate, 10% dimethylsulfoxide (from compounds), pH 7.5, 40 μg GST-Rb, and enzyme in a 100 μL volume. Compounds were added at various concentrations between 1 nM and 10 μM. The reaction was allowed to proceed for 15 min at 30° C. and was stopped by the addition of 70 μL of stop solution (237 mM disodium ethylene-diamine tetraacetate, 105 mM adenosine triphosphate, pH 8.0). The GST-Rb was captured by binding to glutathione-sepharose bead (Amersham) for 110 min, and the suspension was filtered through a glass fiber filter. After washing the retained beads five time with phosphate-buffered saline containing 0.3% (w/v) Tween-20, the amount of ^33P incorporated was determined by scintillation counting after adding 100 μL scintillant. Relative activity was determined by dividing the amount of radioactivity incorporated in the presence of compound by the amount of radioactivity incorporated in a control experiment containing DMSO alone but no compound. The background radioactivity, determined in an experiment containing 50 mM disodium ethylenediamine tetraacetate in place of compound, was subtracted from all results before calculations.

Cdk4/cyclin D1 = molecular target: T2, Cdk4/cyclin D1 (Homo sapiens, UniProt P11802); assay: Biochemical kinase assay Cdk4/cyclin D1; settings: Table 6
T2 construct: made in house; host or cells: Sf9 insect cells
T2 sequence (P11802 whole entry, species assumed): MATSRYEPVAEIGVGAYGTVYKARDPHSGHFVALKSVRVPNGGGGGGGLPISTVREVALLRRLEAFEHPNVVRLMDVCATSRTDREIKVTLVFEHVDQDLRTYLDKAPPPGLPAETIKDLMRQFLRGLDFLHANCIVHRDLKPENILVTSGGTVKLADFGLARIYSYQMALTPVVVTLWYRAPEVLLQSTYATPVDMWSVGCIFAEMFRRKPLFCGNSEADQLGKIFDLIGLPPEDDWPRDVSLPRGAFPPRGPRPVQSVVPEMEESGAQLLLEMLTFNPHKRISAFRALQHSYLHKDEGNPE
T2 sequence (P24385 whole entry partner, species assumed): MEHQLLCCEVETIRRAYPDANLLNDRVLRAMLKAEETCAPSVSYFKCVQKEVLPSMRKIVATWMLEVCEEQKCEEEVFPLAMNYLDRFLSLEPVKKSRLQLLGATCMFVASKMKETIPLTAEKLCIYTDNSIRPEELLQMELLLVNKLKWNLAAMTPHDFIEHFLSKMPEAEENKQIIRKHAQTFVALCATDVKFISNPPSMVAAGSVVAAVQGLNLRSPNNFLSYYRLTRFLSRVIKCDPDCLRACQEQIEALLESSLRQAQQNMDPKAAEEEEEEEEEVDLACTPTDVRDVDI
Description: as §1, §2, §3

Cdc2/cyclin B = molecular target: T3, Cdc2/cyclin B (Homo sapiens, UniProt P06493); assay: Biochemical kinase assay Cdc2/cyclin B; settings: Table 6
T3 construct: purchased
T3 sequence (P06493 whole entry, species assumed): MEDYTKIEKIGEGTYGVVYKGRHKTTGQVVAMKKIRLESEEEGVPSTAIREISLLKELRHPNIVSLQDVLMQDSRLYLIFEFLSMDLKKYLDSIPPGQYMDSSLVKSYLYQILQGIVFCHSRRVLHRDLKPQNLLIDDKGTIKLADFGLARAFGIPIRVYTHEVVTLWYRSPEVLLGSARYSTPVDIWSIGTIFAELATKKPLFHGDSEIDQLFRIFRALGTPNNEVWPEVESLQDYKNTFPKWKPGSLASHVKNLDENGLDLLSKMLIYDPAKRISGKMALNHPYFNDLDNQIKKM
T3 sequence (P14635 whole entry partner, species assumed): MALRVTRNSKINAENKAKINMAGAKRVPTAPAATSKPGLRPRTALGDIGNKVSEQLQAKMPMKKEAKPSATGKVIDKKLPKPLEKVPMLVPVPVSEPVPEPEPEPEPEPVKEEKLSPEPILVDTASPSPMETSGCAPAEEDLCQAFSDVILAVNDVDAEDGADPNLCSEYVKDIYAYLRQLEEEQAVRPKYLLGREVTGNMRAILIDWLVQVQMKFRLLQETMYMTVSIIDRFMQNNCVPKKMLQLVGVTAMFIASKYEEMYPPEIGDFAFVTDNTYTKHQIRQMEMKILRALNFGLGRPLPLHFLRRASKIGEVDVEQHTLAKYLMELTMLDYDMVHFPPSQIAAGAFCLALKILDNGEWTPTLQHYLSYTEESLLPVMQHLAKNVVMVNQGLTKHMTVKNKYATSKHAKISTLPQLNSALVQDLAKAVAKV
Description: as §1, §2
Assays: Cdc2/cyclinB activity was determined by measuring incorporation of radio-activity from adenosine [γ-^32P]triphosphate into Histone H1 using a TCA precipitation assay. Cdc2/cyclin B kinase and Histone H1 were obtained from commercial sources. The final assay solution contained 50 mM Tris.HCl, 10 mM MgCl2, 1 mM dithiothreitol, 50 μM adenosine triphosphate, 2 μCi ^32P, 10% dimethylsulfoxide (from compounds), pH 7.5, 20 μg Histone H1, 6 U enzyme in a 50 μL volume. Compounds were added at various concentrations between 1 nM and 10 μM. The reaction was started with the addition of enzyme, allowed to proceed for 20 min at 30° C., and stopped by the addition of 20 μL of stop solution (237 mM disodium ethylenediamine tetraacetate, 105 mM adenosine triphosphate, pH 8.0). The protein was precipitated by the addition of 35 μL 70% (w/v) trichloroacetic acid, and the precipitate was captured on a 96-well glass fiber filter plate (Millipore, Inc.), which had been wet with 25% (w/v) trichloroacetic acid. The filter was washed ten times with 25% (w/v) trichloroacetic acid, and the amount of incorporated ^32P was determined by scintillation counting after adding 100 μL scintillant (Microscint 20, Packard Instruments). Relative activity was determined by dividing the amount of radioactivity incorporated in the presence of compound by the amount of radioactivity incorporated in a control experiment containing DMSO alone but no compound. The background radioactivity, determined in an experiment containing 50 mM EDTA in place of compound, was subtracted from all results before calculations.

[1] = HCT-116, non-protein adjusted, Table 6, read-out: HCT-116 viability IC50

Structure (SMILES) | pIC50 (Cdk2/cyclin E) | pIC50 (Cdk4/cyclin D1) | pIC50 (HCT-116 cells; [1]) | pIC50 (Cdc2/cyclin B) | pIC50 (HCT-116 cells; HCT-116, read-out: HCT-116 viability IC50)
CC(C)c1nn(-c2c(Cl)cccc2Cl)c2nc(Cc3ccc(OCCOC(=O)[C@@H](N)C(C)C)cc3)[nH]c(=O)c12 [Compound A60] | > 7.00 |  |  |  | > 7.00
O=C(Nc1cccc2c1C(=O)c1c(-c3ccc(OCCN4CCOCC4)cc3Cl)n[nH]c1-2)NN1CCOCC1 [Compound A28] | > 7.00 | > 6.00 |  | > 7.00 | 
CC(C)c1nn(-c2c(Cl)cccc2Cl)c2nc(Cc3ccc(OCCO)cc3)[nH]c(=O)c12 [Compound A59] | > 7.00 | > 6.00 |  | > 7.00 | 
CN1CCN(NC(=O)Nc2cccc3c2C(=O)c2c(-c4ccc(OCCN5CCCC5)c(F)c4)n[nH]c2-3)CC1 [Compound A14] | > 7.00 | > 7.00 |  | > 7.00 | 
CN(C)C(=O)COc1ccc(-c2[nH]nc3c2C(=O)c2c(NC(=O)NN4CCOCC4)cccc2-3)cc1 [Compound A34] | > 8.00 | > 7.00 |  | > 7.00 | 
O=C(Nc1cccc2c1C(=O)c1c(-c3ccc(OCCN4CCOCC4)c(F)c3)n[nH]c1-2)NN1CCOCC1 [Compound A27] | > 7.00 | > 7.00 |  | > 8.00 | 
Cc1noc(COc2ccc(-c3[nH]nc4c3C(=O)c3c(NC(=O)NN5CCN(C)CC5)cccc3-4)cc2)n1 [Compound A45] | > 7.00 | > 7.00 |  | > 8.00 | 
CN(C)C(=O)CN1CCN(NC(=O)Nc2cccc3c2C(=O)c2c-3n[nH]c2-c2ccc(OCCN3CCCC3)cc2)CC1 [Compound A41] | > 7.00 | > 7.00 |  | > 6.00 | 
Cc1cc(-c2[nH]nc3c2C(=O)c2c(NC(=O)NN4CCOCC4)cccc2-3)ccc1OCCN1CCCC1 [Compound A25] | > 7.00 | > 7.00 |  | > 7.00 | 
Cc1cc(OCCN2CCCC2)ccc1-c1[nH]nc2c1C(=O)c1c(NC(=O)NN3CCOCC3)cccc1-2 [Compound A29] | > 8.00 | > 7.00 |  | > 7.00 | 
CC(C)c1nn(-c2c(Cl)cc(Cl)cc2Cl)c2nc(Cc3ccc(NS(=O)(=O)CCCN4CCCC4)cc3)[nH]c(=O)c12 [Compound A38] | > 7.00 | > 6.00 |  | > 6.00 | 
O=C(Nc1cccc2c1C(=O)c1c-2n[nH]c1-c1ccc(S(=O)(=O)N2CCNCC2)cc1)NN1CCOCC1 [Compound A56] | > 7.00 | > 6.00 |  | > 7.00 | 
Cc1cc(OCCn2cccn2)ccc1-c1[nH]nc2c1C(=O)c1c(NC(=O)NN3CCN(C)CC3)cccc1-2 [Compound A11] | > 7.00 | > 7.00 |  | > 7.00 | 
CCOC(=O)CN1CCN(NC(=O)Nc2cccc3c2C(=O)c2c-3n[nH]c2-c2ccc(OCCN3CCCC3)cc2)CC1 [Compound A26] | > 7.00 | > 7.00 |  | > 7.00 | 
O=C(Nc1cccc2c1C(=O)c1c-2n[nH]c1-c1ccc(O)c(CN2CCOCC2)c1)NN1CCOCC1 [Compound A10] | > 7.00 | > 6.00 |  | > 8.00 | 
Cc1nc(Cc2nc3c(c(C(C)C)nn3-c3c(Cl)cccc3Cl)c(=O)[nH]2)cs1 [Compound A58] | > 8.00 | > 5.00 |  | > 5.00 | 

The next lines start with results.

pIC50 (Cdk2/cyclin E) | pIC50 (Cdk4/cyclin D1) | pIC50 (HCT-116 cells; [1]) | pIC50 (Cdc2/cyclin B) | Structure (SMILES) | pIC50 (HCT-116 cells; HCT-116, read-out: HCT-116 viability IC50)
> 7.00 | > 6.00 | > 7.00 | > 6.00 | CC(C)c1nn(-c2c(Cl)cc(Cl)cc2Cl)c2nc(Cc3ccc(CN4CCCC4)n3C)[nH]c(=O)c12 [Compound A43] | 
> 7.00 | > 5.00 | > 7.00 | > 6.00 | CC(C)c1nn(-c2c(Cl)cccc2Cl)c2nc(Cc3ccc(O)c(CN4CCOCC4)c3)[nH]c(=O)c12 [Compound A5] | 
> 7.00 | > 5.00 | > 7.00 | > 7.00 | COCCOc1ccc(Cc2nc3c(c(C(C)C)nn3-c3c(Cl)cccc3Cl)c(=O)[nH]2)cc1 [Compound A66] | 
> 7.00 | > 5.00 | > 7.00 | > 7.00 | CCN(CCO)S(=O)(=O)c1cc(Cl)c(-n2nc(C(C)C)c3c(=O)[nH]c(Cc4ccc(OCCN5CCOCC5)cc4)nc32)c(Cl)c1 [Compound A55] | 
> 8.00 | > 6.00 | > 7.00 | > 7.00 | CC(C)c1nn(-c2c(Cl)cc(Cl)cc2Cl)c2nc(Cc3ccc(OCCN4CCN(C(C)C)CC4)cc3)[nH]c(=O)c12 [Compound A1] | 
> 7.00 | > 6.00 | > 7.00 | > 6.00 | CC(C)c1nn(-c2c(Cl)cccc2Cl)c2nc(Cc3ccc(NS(=O)(=O)CCCN4CCOCC4)cc3)[nH]c(=O)c12 [Compound A30] | 
> 7.00 |  | > 7.00 | > 6.00 | CC(C)c1nn(-c2c(Cl)cc(Cl)cc2Cl)c2nc(Cc3ccc(NS(=O)(=O)CCCN4CCCCC4)cc3)[nH]c(=O)c12 [Compound A48] | 
> 7.00 |  | > 7.00 | > 6.00 | CC(C)c1nn(-c2c(Cl)cccc2Cl)c2nc(Cc3ccc(CN4CCN(C(C)C)CC4)c(O)c3)[nH]c(=O)c12 [Compound A50] | 
> 7.00 | > 7.00 |  | > 8.00 | Cc1cc(OCCN2CCCN(C)CC2)ccc1-c1[nH]nc2c1C(=O)c1c(NC(=O)NN3CCN(C)CC3)cccc1-2 [Compound A9] | 
> 7.00 | > 7.00 |  | > 7.00 | CC(C)OC(=O)CN1CCN(NC(=O)Nc2cccc3c2C(=O)c2c-3n[nH]c2-c2ccc(OCCN3CCCC3)cc2)CC1 [Compound A40] | 
> 8.00 | > 6.00 |  | > 7.00 | Cc1cc(OCCCN2CCN(C(C)C)CC2)ccc1-c1[nH]nc2c1C(=O)c1c(NC(=O)NN3CCOCC3)cccc1-2 [Compound A21] | 
> 7.00 | > 7.00 |  | > 7.00 | CN1CCN(CCOc2ccc(-c3n[nH]c4c3C(=O)c3c(NC(=O)NN5CCN(C)CC5)cccc3-4)c(F)c2)CC1 [Compound A13] | 
> 8.00 | > 7.00 |  | > 8.00 | CC(C)N1CCN(CCCOc2ccc(-c3[nH]nc4c3C(=O)c3c(NC(=O)NN5CCOCC5)cccc3-4)cc2)CC1 [Compound A20] | 
